Columns and labels:
[1] = test system: rat liver microsomes (RLM); assay: Rat liver microsomal incubation, metabolite formation quantified by UPLC; conditions: RLM
Method: (§1) The incubation mixtures were prepared and incubated in glass vials to avoid plastic binding of the substrates. The glass vials were capped to prevent substrate loss due to volatility. After preincubation of the incubation mixture at 37 °C for 1 min, the enzymatic reaction was initiated by adding microsomes to the incubation mixture which was subsequently incubated at 37 °C for 20 min. The reaction was terminated by adding 100 µl ice-cold acetonitrile followed by vortexing. After 5 min centrifugation at 5000 rpm (4000 × g), 4 °C, the supernatant was collected for ultraperformance liquid chromatography (UPLC) analysis. […] Therefore, a diisopropylether (DIPE) extraction of the metabolites was performed after the reaction was stopped by the addition of 20 µl 10% HClO4. To this end, the incubation mixture (total volume of 220 µl) was extracted three times with 1 ml DIPE. Each time, the upper organic layer was collected and the DIPE was subsequently evaporated from the combined organic fractions with a gentle stream of nitrogen. The residues were dissolved in 100 µl methanol and analyzed by UPLC.
(§2) The metabolites formed were analyzed and quantified using an Acquity UPLC system equipped with a photodiode array (PDA) detector (Waters, Milford, MA). The metabolites and their parent compound were separated on a reverse phase Acquity UPLC® BEH C18 column ([…], 1.7 µm, Waters, Milford, MA) and detected at wavelengths ranging from 190 to 400 nm. Eluent A was nano-pure water containing 0.1% trifluoroacetic acid (v/v), and eluent B was acetonitrile containing 0.1% trifluoroacetic acid (v/v). The gradient elution started from 90% A and 10% B applied from 0.0 min to 0.5 min, which was changed to 0% A and 100% B from 0.5 to 15.5 min and then kept at 0% A and 100% B from 15.5 min to 18.5 min, changed back to 90% A and 10% B from 18.5 to 18.6 min and then maintained at the starting conditions from 18.6 min until 22 min. The total run time was 22 min using a flow rate of 0.6 ml/min. The temperature of the column was set at 40 °C and that of the autosampler at 10 °C during the UPLC analysis. The injection volume was 3.5 µl. Metabolites were quantified using their peak area at the wavelength specified in Table 1, using calibration curves of available reference compounds. Metabolites were identified by comparing their retention time (RT) and UV spectrum to those of reference chemicals on UPLC. When reference chemicals were not available, metabolite identification by gas chromatography-triple quadrupole mass spectrometry (GC–MS/MS) was performed. The minor metabolites were identified by elution time and mass spectra both on UPLC and GC–MS/MS, and by comparison with available elution and spectral information from the literature.
(§3) The metabolite concentrations in the microsomal incubation mixtures as quantified by UPLC were used to calculate the rate of the enzymatic conversions in pmol/min/mg microsomal protein. The kinetic parameters KM and Vmax were obtained using a nonlinear regression curve fit applying the Michaelis Menten equation in GraphPad Prism 5 (San Diego, USA). To compare the catalytic efficiency of formation of the different metabolites the intrinsic clearance (Clint) was calculated as Vmax divided by KM.

[2] = test system: human liver microsomes (HLM); assay: Human liver microsomal incubation, metabolite formation quantified by UPLC; conditions: HLM
Method: as §1, §2, §3

[3] = 0 to 600 μM, 20 min, NM = no metabolism
[4] = substrate 1-N-hexylphenanthrene

SMILES: CCCCCCCCCCCCc1cccc2c1ccc1ccccc12 [1-N-dodecylphenanthrene, 1-n-dodecylphenanthrene]
- Metabolic conversion (metabolites formed) [1, 3]: No metabolic conversion was observed
- Metabolic conversion (metabolites formed) [2, 3]: No metabolic conversion was observed

SMILES: CCc1cc2ccccc2c2ccccc12 [9-Ethylphenanthrene]
- Vmax, formation of 9-(1-Hydroxyethyl)-phenanthrene RT = 6.20 min ([1]; substrate 9-Ethylphenanthrene): 1206 ± 47.9 pmol/min/mg microsomal protein
- Vmax, formation of 9-(2-Hydroxyethyl)-phenanthrene RT = 6.00 min ([1]; substrate 9-Ethylphenanthrene): 37.0 ± 2.26 pmol/min/mg microsomal protein
- Vmax, formation of 9-Ethylphenanthrol RT = 7.42 min ([1]; substrate 9-Ethylphenanthrene): 29.7 ± 3.1 pmol/min/mg microsomal protein
- Vmax, formation of 9-Ethylphenanthrol RT = 7.58 min ([1]; substrate 9-Ethylphenanthrene): 56.6 ± 1.8 pmol/min/mg microsomal protein
- Vmax, formation of 9-Ethylphenanthrol RT = 7.93 min ([1]; substrate 9-Ethylphenanthrene): 22.8 ± 1.8 pmol/min/mg microsomal protein
- Vmax, formation of Dihydro-9-ethylphenanthrene-diol RT = 3.81 min ([1]; substrate 9-Ethylphenanthrene): 12.0 ± 2.1 pmol/min/mg microsomal protein
- Vmax, formation of Unknown metabolite RT = 9.35 min ([1]; substrate 9-Ethylphenanthrene): 52.7 ± 6.2 pmol/min/mg microsomal protein
- Vmax, formation of 9-(1-Hydroxyethyl)-phenanthrene RT = 6.20 min ([2]; substrate 9-Ethylphenanthrene): 267.7 ± 17.4 pmol/min/mg microsomal protein
- Vmax, formation of 9-(2-Hydroxyethyl)-phenanthrene RT = 6.00 min ([2]; substrate 9-Ethylphenanthrene): 61.4 ± 3.3 pmol/min/mg microsomal protein
- Vmax, formation of 9-Ethylphenanthrol RT = 7.42 min ([2]; substrate 9-Ethylphenanthrene): 12.8 ± 1.1 pmol/min/mg microsomal protein
- Vmax, formation of 9-Ethylphenanthrol RT = 7.58 min ([2]; substrate 9-Ethylphenanthrene): 29.1 ± 2.8 pmol/min/mg microsomal protein
- Vmax, formation of Dihydro-9-ethylphenanthrene-diol RT = 3.81 min ([2]; substrate 9-Ethylphenanthrene): 15.2 ± 0.8 pmol/min/mg microsomal protein
- Vmax, formation of Dihydro-9-ethylphenanthrene-diol RT = 3.88 min ([2]; substrate 9-Ethylphenanthrene): 23.5 ± 1.4 pmol/min/mg microsomal protein

SMILES: CCc1ccc2c(ccc3ccccc32)c1 [2-Ethylphenanthrene]
- Vmax, formation of 2-(1-Hydroxyethyl)-phenanthrene RT = 6.21 min ([1]; substrate 2-Ethylphenanthrene): 3149.0 ± 266.1 pmol/min/mg microsomal protein
- Vmax, formation of 2-Ethylphenanthrol RT = 7.57 min ([1]; substrate 2-Ethylphenanthrene): 16.5 ± 3.1 pmol/min/mg microsomal protein
- Vmax, formation of 2-Ethylphenanthrol RT = 7.74 min ([1]; substrate 2-Ethylphenanthrene): 16.6 ± 2.7 pmol/min/mg microsomal protein
- Vmax, formation of 2-Ethylphenanthrol RT = 7.89 min ([1]; substrate 2-Ethylphenanthrene): 11.8 ± 2.4 pmol/min/mg microsomal protein
- Vmax, formation of Dihydro-2-ethylphenanthrene-diol RT = 4.6 min ([1]; substrate 2-Ethylphenanthrene): 33.9 ± 11.8 pmol/min/mg microsomal protein
- Vmax, formation of Dihydro-2-ethylphenanthrene-diol RT = 5.29 min ([1]; substrate 2-Ethylphenanthrene): 42.9 ± 3.5 pmol/min/mg microsomal protein
- Vmax, formation of Unknown metabolite RT = 9.38 min ([1]; substrate 2-Ethylphenanthrene): 238.0 ± 23.9 pmol/min/mg microsomal protein
- Vmax, formation of 2-(1-Hydroxyethyl)-phenanthrene RT = 6.21 min ([2]; substrate 2-Ethylphenanthrene): 468.8 ± 50.3 pmol/min/mg microsomal protein
- Vmax, formation of Dihydro-2-ethylphenanthrene-diol RT = 5.16 min ([2]; substrate 2-Ethylphenanthrene): 18.4 ± 3.2 pmol/min/mg microsomal protein
- Vmax, formation of Dihydro-2-ethylphenanthrene-diol RT = 5.29 min ([2]; substrate 2-Ethylphenanthrene): 22.1 ± 3.0 pmol/min/mg microsomal protein
- Vmax, formation of Unknown metabolite RT = 9.38 min ([2]; substrate 2-Ethylphenanthrene): 37.2 ± 6.5 pmol/min/mg microsomal protein

SMILES: CCCCCCc1cccc2c1ccc1ccccc12 [1-N-hexylphenanthrene, 1-n-Hexylphenanthrene]
- Vmax, formation of 1-Hydroxyhexyl-phenanthrene RT = 8.45 min [1, 4]: 103.4 ± 18.1 pmol/min/mg microsomal protein
- Vmax, formation of 1-Hydroxyhexyl-phenanthrene RT = 8.58 min [1, 4]: 54.8 ± 5.2 pmol/min/mg microsomal protein
- Vmax, formation of 1-Hydroxyhexyl-phenanthrene RT = 8.82 min [1, 4]: 25.6 ± 1.8 pmol/min/mg microsomal protein
- Vmax, formation of 1-Hydroxyhexyl-phenanthrene RT = 9.13 min [1, 4]: 11.7 ± 0.9 pmol/min/mg microsomal protein
- Vmax, formation of 1-Hydroxyhexyl-phenanthrene RT = 8.45 min [2, 4]: 48.3 ± 6.1 pmol/min/mg microsomal protein
- Vmax, formation of 1-Hydroxyhexyl-phenanthrene RT = 8.82 min [2, 4]: 44.2 ± 4.8 pmol/min/mg microsomal protein

Source: paper PMC8921064 (Archives of Toxicology, 2022)
